According to patent publication US20230075856A1, “CYCLIC SULFAMIDE COMPOUNDS FOR TREATMENT OF HBV” (Assembly Biosciences, Inc., priority 2018, published 2023):

Test system: HBV viral load production from HepAD38 cells
Test: Viral production from HepAD38 cells: viral load in supernatant by qPCR of the HBV core sequence
Format: cell-based
Conditions: 5 days incubation, qPCR of supernatant HBV DNA vs DMSO control, read-out: viral load lowering EC50 (Activity)
Procedure, shortened: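 HepAD38 cells seeded at 50,000/well in tetracycline-free medium with 2% FBS, treated with compounds (final top concentration 10 μM) for 5 days at 37 °C. Supernatant HBV DNA quantified by TaqMan qPCR of core sequence against HBV DNA standards, relative to DMSO controls; EC50 by four-parameter logistic fit.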

| SMILES | EC50 [nM] |
| --- | --- |
| CN1C(C(=O)Nc2ccc(F)c(Cl)c2)CC(C(=O)NCc2csc(-c3ccc(OCCN4CCCCC4)cc3)n2)NS1(=O)=O (single isomer, unassigned) [Compound 957-ISOMER-B, N3-(3-chloro-4-fluoro-phenyl)-2-methyl-1,1-dioxo-N5-[[2-[4-[2-(1-piperidyl)ethoxy]phenyl]thiazol-4-yl]methyl]-1,2,6-thiadiazinane-3,5-dicarboxamide] | 100 to 10000 |
| Cc1nc(-c2ccccc2)sc1CNC(=O)C1CC(C(=O)Nc2ccc(F)c(C#N)c2)N(C)S(=O)(=O)N1 (single isomer, unassigned) [1136-ISOMER-B, N3-(3-cyano-4-fluoro-phenyl)-2-methyl-N5-[(4-methyl-2-phenyl-thiazol-5-yl)methyl]-1,1-dioxo-1,2,6-thiadiazinane-3,5-dicarboxamide] | 100 to 10000 |
| Cc1nc(-c2ccccc2F)sc1[C@@H](NC(=O)C1CC(C(=O)Nc2ccc(F)c(Cl)c2)N(C)S(=O)(=O)N1)c1ccccc1 (single isomer, unassigned; isomer-d) [1101-ISOMER-D] | 100 to 10000 |

Same assay, conditions: Hepatitis B virus, HePAD38, 120 h, 5 days incubation, qPCR of supernatant HBV DNA vs DMSO control, read-out: viral load lowering EC50 (Activity)

| SMILES | EC50 [nM] |
| --- | --- |
| Cc1ccccc1-c1nc(C)c(CNC(=O)C2CC(C(=O)Nc3ccc(F)c(Cl)c3)N(C)S(=O)(=O)N2)s1 (centres unmarked) [Compound 1017] | < 50 |
| CN1C(C(=O)Nc2ccc(F)c(Cl)c2)CC(C(=O)NCc2cnc(Cl)s2)NS1(=O)=O (centres unmarked) [Compound 1199] | < 50 |
| CCc1nc(CNC(=O)C2CC(C(=O)Nc3ccc(F)c(Cl)c3)N(C)S(=O)(=O)N2)cs1 (single isomer, unassigned) [Compound 742-ISOMER-A, N3-(3-chloro-4-fluoro-phenyl)-N5-[(2-ethylthiazol-4-yl)methyl]-2-methyl-1,1-dioxo-1,2,6-thiadiazinane-3,5-dicarboxamide] | 100 to 10000 |
| COc1ccccc1-c1ncc(CNC(=O)C2CC(C(=O)Nc3ccc(F)c(Cl)c3)N(C)S(=O)(=O)N2)s1 (single isomer, unassigned) [Compound 987-ISOMER-A, N3-(3-chloro-4-fluoro-phenyl)-N5-[[2-(2-methoxyphenyl)thiazol-5-yl]methyl]-2-methyl-1,1-dioxo-1,2,6-thiadiazinane-3,5-dicarboxamide] | < 50 |
| CN1C(C(=O)Nc2ccc(F)c(Cl)c2)CC(C(=O)NC2CCN(Cc3cccnc3Br)CC2)NS1(=O)=O (centres unmarked) [Compound 1033] | 100 to 10000 |
| CN1C(C(=O)Nc2ccc(F)c(Cl)c2)CC(C(=O)NCc2ncc(-c3ccc(F)cc3)s2)NS1(=O)=O (single isomer, unassigned) [1153-ISOMER-A, N3-(3-chloro-4-fluoro-phenyl)-N5-[[5-(4-fluorophenyl)thiazol-2-yl]methyl]-2-methyl-1,1-dioxo-1,2,6-thiadiazinane-3,5-dicarboxamide] | < 50 |
| CN1C(C(=O)Nc2ccc(F)c(Cl)c2)CC(C(=O)NCc2cnc(-c3ccc(F)cc3)s2)NS1(=O)=O (centres unmarked) [Compound 916] | < 50 |
| CN1C(C(=O)Nc2ccc(F)c(Cl)c2)CC(C(=O)NCc2ccncc2)NS1(=O)=O (centres unmarked) [Compound 715] | 100 to 10000 |
| CN1C(C(=O)Nc2ccc(F)c(Cl)c2)CC(C(=O)NCc2ccccc2-n2ccnc2)NS1(=O)=O (centres unmarked) [Compound 910] | 50 to 100 |
| CCN1C(C(=O)Nc2ccc(F)c(Cl)c2)CC(C(=O)NC2CCN(C(=O)OC)CC2)NS1(=O)=O (single isomer, unassigned) [Compound 890-ISOMER-A, methyl 4-[[5-[(3-chloro-4-fluoro-phenyl)carbamoyl]-6-ethyl-1,1-dioxo-1,2,6-thiadiazinane-3-carbonyl]amino]piperidine-1-carboxylate] | < 50 |
| Cc1cn(-c2ccccc2)nc1CNC(=O)C1CC(C(=O)Nc2ccc(F)c(Cl)c2)N(C)S(=O)(=O)N1 (centres unmarked) [Compound 1057] | < 50 |
| CN1C(C(=O)Nc2ccc(F)c(C#N)c2)CC(C(=O)NCc2ccc(Cl)cc2)NS1(=O)=O (centres unmarked) [Compound 836] | 50 to 100 |
| C[C@@H](NC(=O)C1CC(C(=O)Nc2ccc(F)c(Cl)c2)N(C)S(=O)(=O)N1)c1ccc(F)cc1 (single isomer, unassigned) [Compound 493-R] | < 50 |
| CN1C(C(=O)Nc2ccc(F)c(Cl)c2)CC(C(=O)NCc2ccc(Cl)cc2)NS1(=O)=O (centres unmarked) [Compound 729] | < 50 |
